These results are taken from publication PMC7736581, “Activation of the IRE1 RNase through remodeling of the kinase front pocket by ATP-competitive ligands” (Nature Communications, 2020).

Structures are written as SMILES.

What is called inhibition is the change of the read-out against control, counted positive when it falls.

One experiment addresses Ret (Homo sapiens, UniProt P07949). The experiment can be described thus: biochemical. Further details: Invitrogen kinase panel: Z'Lyte activity (ATP at Km) or LanthaScreen competitive ATP-site binding, percent inhibition.
In another experiment the target is T1, PDK1(direct) (Homo sapiens, UniProt O15530).
T1 construct: gene PDPK1; direct
T1 sequence (O15530 whole entry): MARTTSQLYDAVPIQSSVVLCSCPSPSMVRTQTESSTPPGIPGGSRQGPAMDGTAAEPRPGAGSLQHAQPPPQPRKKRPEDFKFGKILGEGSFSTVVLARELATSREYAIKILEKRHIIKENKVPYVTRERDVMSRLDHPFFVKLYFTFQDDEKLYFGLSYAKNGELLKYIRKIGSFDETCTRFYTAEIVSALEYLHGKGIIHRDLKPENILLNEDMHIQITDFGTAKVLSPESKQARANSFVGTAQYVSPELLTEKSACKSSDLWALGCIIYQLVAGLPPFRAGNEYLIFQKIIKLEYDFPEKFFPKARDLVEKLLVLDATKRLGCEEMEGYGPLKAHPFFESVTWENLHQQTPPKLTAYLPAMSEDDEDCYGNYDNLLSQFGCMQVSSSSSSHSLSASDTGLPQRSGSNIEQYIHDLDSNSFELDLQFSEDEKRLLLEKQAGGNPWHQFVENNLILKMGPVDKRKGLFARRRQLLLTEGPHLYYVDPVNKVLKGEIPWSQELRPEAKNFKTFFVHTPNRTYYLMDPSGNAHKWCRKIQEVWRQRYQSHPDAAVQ
Briefly: biochemical. On the set-up: Invitrogen kinase panel: Z'Lyte activity (ATP at Km) or LanthaScreen competitive ATP-site binding, percent inhibition.

For another experiment, the target named is T2, MST2 (Homo sapiens, UniProt Q13188).
T2 construct: gene STK3
T2 sequence (Q13188 whole entry): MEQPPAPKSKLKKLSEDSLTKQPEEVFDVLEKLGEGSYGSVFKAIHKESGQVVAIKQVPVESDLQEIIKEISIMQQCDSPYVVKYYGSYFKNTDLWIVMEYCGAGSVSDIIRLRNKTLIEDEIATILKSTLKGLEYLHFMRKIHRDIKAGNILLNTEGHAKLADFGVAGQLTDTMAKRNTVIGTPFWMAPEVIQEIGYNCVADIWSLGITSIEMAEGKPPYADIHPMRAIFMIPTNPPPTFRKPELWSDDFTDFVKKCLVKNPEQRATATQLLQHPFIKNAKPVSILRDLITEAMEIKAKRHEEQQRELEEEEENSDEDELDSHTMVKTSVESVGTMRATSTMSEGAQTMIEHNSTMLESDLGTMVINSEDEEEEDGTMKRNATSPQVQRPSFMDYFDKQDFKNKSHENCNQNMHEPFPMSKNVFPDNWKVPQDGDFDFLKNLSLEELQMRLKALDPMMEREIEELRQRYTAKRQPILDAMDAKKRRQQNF
Briefly: biochemical. On the set-up: Invitrogen kinase panel: Z'Lyte activity (ATP at Km) or LanthaScreen competitive ATP-site binding, percent inhibition.

The target in the next experiment is Axl (Homo sapiens, UniProt P30530). Briefly: biochemical. Further details: Invitrogen kinase panel: Z'Lyte activity (ATP at Km) or LanthaScreen competitive ATP-site binding, percent inhibition.
Axl, sequence (P30530 whole entry): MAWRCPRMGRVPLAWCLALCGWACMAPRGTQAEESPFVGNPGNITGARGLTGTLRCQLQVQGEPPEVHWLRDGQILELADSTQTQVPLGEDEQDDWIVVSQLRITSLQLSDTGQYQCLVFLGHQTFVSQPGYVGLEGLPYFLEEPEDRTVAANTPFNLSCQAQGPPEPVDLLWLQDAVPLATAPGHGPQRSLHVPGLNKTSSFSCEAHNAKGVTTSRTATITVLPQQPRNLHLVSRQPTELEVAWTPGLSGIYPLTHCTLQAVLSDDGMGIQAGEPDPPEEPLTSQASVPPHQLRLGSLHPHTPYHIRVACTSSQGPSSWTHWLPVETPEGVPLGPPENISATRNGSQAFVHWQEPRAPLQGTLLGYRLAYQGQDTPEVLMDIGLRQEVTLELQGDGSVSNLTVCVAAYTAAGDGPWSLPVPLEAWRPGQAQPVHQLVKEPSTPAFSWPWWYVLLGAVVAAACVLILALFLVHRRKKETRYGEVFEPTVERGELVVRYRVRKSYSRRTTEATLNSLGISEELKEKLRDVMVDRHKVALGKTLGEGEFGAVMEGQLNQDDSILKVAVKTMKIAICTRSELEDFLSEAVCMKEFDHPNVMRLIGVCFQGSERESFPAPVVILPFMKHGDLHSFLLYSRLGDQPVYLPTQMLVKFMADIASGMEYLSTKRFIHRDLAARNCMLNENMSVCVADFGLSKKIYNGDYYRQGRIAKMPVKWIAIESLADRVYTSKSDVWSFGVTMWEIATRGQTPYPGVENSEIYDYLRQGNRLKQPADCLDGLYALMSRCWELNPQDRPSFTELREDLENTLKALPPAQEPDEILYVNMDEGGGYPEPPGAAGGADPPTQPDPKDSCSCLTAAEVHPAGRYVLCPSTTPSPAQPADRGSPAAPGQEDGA
For the next experiment, the target named is TEC (Homo sapiens, UniProt P42680). Briefly: biochemical. Further details: Invitrogen kinase panel: Z'Lyte activity (ATP at Km) or LanthaScreen competitive ATP-site binding, percent inhibition.
TEC, sequence (P42680 whole entry): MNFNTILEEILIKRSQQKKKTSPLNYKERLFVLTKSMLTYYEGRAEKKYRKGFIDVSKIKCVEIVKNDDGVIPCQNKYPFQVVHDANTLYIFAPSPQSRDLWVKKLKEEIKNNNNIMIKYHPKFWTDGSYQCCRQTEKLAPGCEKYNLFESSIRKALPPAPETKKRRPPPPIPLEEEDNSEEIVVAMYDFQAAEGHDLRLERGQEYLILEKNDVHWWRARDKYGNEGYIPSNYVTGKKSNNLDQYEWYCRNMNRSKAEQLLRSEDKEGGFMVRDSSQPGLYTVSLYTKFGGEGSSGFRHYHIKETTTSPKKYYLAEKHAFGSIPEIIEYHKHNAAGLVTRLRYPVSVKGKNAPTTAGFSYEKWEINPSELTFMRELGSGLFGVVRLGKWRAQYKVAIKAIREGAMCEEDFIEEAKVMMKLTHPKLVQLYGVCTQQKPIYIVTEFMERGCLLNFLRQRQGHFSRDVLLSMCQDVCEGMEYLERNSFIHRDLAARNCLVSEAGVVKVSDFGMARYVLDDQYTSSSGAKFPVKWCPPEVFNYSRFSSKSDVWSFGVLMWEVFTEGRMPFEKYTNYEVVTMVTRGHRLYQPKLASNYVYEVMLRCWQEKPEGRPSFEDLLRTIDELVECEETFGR
In the next experiment the target is T3, Hyl (Homo sapiens, UniProt P42679).
T3 construct: gene MATK
T3 sequence (P42679 whole entry): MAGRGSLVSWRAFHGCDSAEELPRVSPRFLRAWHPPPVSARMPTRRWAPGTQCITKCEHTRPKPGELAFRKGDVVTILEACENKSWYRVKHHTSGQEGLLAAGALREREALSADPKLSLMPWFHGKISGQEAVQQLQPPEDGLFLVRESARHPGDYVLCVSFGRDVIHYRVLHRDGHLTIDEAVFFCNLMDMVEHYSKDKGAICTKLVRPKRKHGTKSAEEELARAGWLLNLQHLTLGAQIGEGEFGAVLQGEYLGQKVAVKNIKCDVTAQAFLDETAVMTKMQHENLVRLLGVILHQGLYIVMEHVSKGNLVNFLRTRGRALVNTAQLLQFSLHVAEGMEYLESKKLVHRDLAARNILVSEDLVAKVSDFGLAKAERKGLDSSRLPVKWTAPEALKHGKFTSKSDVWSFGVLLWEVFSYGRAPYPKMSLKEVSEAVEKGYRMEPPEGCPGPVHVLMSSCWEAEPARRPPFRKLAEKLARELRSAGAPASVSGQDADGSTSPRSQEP
The experiment can be described thus: biochemical. Further details: Invitrogen kinase panel: Z'Lyte activity (ATP at Km) or LanthaScreen competitive ATP-site binding, percent inhibition.

The target of experiment [1] is T4, Inositol-Requiring Enzyme 1 (IRE1) (Homo sapiens, UniProt O75460). Briefly: co-crystal structure ([…] Å); also TR-FRET kinase binding, HX-MS, RNase activation. Further details: gene ERN1; IRE1 KR (G547-L977), unphosphorylated (IRE1-0P).
T4 sequence (O75460 547-977): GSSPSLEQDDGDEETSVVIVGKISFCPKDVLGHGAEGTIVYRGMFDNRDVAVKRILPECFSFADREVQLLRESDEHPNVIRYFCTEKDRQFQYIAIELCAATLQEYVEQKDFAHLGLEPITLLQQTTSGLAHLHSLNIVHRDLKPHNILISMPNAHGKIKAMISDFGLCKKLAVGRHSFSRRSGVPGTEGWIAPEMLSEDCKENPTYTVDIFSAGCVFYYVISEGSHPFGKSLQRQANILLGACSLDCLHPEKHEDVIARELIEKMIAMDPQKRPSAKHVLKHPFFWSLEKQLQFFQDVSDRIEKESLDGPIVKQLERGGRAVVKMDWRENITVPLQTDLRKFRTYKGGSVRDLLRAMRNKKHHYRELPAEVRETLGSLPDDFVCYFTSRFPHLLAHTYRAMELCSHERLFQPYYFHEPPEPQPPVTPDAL
A further experiment addresses LTK (Homo sapiens, UniProt P29376). The experiment can be described thus: biochemical. Further details: Invitrogen kinase panel: Z'Lyte activity (ATP at Km) or LanthaScreen competitive ATP-site binding, percent inhibition. From the text:
(§1) We set out to identify allosteric activators of IRE1 RNase by screening internal compound libraries for binding to the kinase, using a published ATP-competitive TR-FRET assay. We then tested kinase binders to assess RNase modulation in an IRE1-specific kinetic RNA cleavage assay that uses the cytoplasmic construct IRE1-LKR (Q470-L977) (Supplementary Fig. 1a). […] Next, we tested these compounds in KMS-11 multiple myeloma cells, known to express functional IRE1 and strongly depend on the IRE1 pathway due to hyper-production of immunoglobulins in the ER[31]. We measured mRNA levels of XBP1s and the well-established RIDD target DGAT2[22] (Fig. 1c and Supplementary Fig. 1c, respectively) using a branched DNA (bDNA) assay. […] Importantly, neither G-9807 nor G-1749 inhibit PERK (Supplementary Table 1).

The target in a further experiment is STK33 (Homo sapiens, UniProt Q9BYT3). Briefly: biochemical. On the set-up: Invitrogen kinase panel: Z'Lyte activity (ATP at Km) or LanthaScreen competitive ATP-site binding, percent inhibition.
STK33, sequence (Q9BYT3 whole entry): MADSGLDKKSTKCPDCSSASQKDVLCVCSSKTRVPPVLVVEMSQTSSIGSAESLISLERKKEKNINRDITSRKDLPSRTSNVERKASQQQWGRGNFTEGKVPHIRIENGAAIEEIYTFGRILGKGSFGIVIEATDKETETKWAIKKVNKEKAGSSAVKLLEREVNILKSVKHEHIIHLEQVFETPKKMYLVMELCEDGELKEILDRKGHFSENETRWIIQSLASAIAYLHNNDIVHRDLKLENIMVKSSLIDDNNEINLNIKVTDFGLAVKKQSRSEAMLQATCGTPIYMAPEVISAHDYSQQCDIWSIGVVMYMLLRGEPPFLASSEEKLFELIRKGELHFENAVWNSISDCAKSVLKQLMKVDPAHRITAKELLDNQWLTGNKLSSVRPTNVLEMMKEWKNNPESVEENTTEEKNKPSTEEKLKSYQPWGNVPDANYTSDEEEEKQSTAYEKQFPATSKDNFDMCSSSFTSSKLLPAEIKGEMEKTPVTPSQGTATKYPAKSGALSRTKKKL
Source text: as §1

In a further experiment the target is Fyn (Homo sapiens, UniProt P06241). The experiment can be described thus: biochemical. Further details: Invitrogen kinase panel: Z'Lyte activity (ATP at Km) or LanthaScreen competitive ATP-site binding, percent inhibition.
In another experiment the target is T5, PDGFR_beta (Homo sapiens, UniProt P09619).
T5 construct: gene PDGFRB
Briefly: biochemical. On the set-up: Invitrogen kinase panel: Z'Lyte activity (ATP at Km) or LanthaScreen competitive ATP-site binding, percent inhibition.

A further experiment deals with T6, FAK2 (Homo sapiens, UniProt Q14289).
T6 construct: gene PTK2B
The experiment can be described thus: biochemical. On the set-up: Invitrogen kinase panel: Z'Lyte activity (ATP at Km) or LanthaScreen competitive ATP-site binding, percent inhibition.

Another experiment addresses T7, GCK (Homo sapiens, UniProt Q12851).
T7 construct: gene MAP4K2
The experiment can be described thus: biochemical. Further details: Invitrogen kinase panel: Z'Lyte activity (ATP at Km) or LanthaScreen competitive ATP-site binding, percent inhibition.

In another experiment the target is T8, Cot (Homo sapiens, UniProt P41279).
T8 construct: gene MAP3K8
Briefly: biochemical. Further details: Invitrogen kinase panel: Z'Lyte activity (ATP at Km) or LanthaScreen competitive ATP-site binding, percent inhibition.

The target in the next experiment is T9, PKC_iota (Homo sapiens, UniProt P41743).
T9 construct: gene PRKCI
Briefly: biochemical. On the set-up: Invitrogen kinase panel: Z'Lyte activity (ATP at Km) or LanthaScreen competitive ATP-site binding, percent inhibition.

The target in experiment [2] is T4, Inositol-Requiring Enzyme 1 (IRE1). Briefly: co-crystal structure ([…] Å); also TR-FRET kinase binding, HX-MS, SV-AUC, RNase activation. On the set-up: gene ERN1; unphosphorylated IRE1 cytoplasmic kinase-RNase (IRE1-0P). Background: Time-resolved FRET reads energy transfer from a long-lived donor to a nearby acceptor.

LTK, sequence (P29376 whole entry): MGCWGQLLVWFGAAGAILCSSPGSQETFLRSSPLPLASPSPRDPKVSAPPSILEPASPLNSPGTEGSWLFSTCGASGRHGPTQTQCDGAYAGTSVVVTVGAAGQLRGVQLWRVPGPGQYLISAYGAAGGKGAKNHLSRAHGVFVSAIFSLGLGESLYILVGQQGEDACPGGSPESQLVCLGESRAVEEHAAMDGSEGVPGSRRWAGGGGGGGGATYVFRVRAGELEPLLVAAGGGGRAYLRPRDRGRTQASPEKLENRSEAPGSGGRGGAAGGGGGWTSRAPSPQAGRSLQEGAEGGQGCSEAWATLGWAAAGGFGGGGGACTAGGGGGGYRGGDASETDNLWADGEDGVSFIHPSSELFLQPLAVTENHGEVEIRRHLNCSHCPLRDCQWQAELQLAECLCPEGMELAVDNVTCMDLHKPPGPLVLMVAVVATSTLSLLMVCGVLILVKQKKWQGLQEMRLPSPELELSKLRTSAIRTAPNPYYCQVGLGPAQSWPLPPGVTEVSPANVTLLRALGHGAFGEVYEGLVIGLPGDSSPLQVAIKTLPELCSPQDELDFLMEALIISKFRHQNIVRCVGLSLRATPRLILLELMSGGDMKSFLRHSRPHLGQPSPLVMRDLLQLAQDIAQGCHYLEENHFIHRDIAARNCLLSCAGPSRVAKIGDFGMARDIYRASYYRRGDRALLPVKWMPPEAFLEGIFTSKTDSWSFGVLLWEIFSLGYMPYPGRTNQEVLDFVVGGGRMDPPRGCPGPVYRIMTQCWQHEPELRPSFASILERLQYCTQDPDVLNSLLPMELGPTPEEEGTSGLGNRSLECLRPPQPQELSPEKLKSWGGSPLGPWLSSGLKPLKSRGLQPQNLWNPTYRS

For the molecule `CCOC(=O)Nc1cccc2c(Oc3ncccc3-c3ccnc(N[C@H]4CCCNC4)n3)c(C)ccc12` [G-1749], the inhibition at 1 µM at Ret is 10%; at PDK1(direct), 5%; on MST2, 5.5%; at Axl it was -1.5%; at TEC, 4%; on Hyl, 6.5%. Also, the inhibition at 1 µM is 1% at LTK and -4% on STK33. Further, the IC50 entry in experiment [1] is listed as “low-nanomolar”.

Consider `CC#CC(=O)Nc1cccc2c(Oc3ncccc3-c3ccnc(N[C@H]4CCCNC4)n3)c(C)ccc12` [G-7658], for which the inhibition at 1 µM on Ret was 8%; on PDK1(direct) it was 3.5%; on MST2 it was 2.5%; on Axl, -1%; on TEC, 3%; at Hyl, 6.5%. Besides, the inhibition at 1 µM was -4.5% on LTK and -3.5% at STK33.

Turning to `O=c1cc(-c2n[nH]c3ncc(-c4c(F)cccc4F)cc23)nc(N2CCC(O)CC2)[nH]1` [G-9807], the inhibition at 1 µM on Fyn was 76.2%; at PDGFR_beta, 80.4%; at FAK2 it was 79.6%; at GCK, 95.7%; on Cot, 94%; on PKC_iota, 46.6%. Besides, the IC50 entry in [2] is on record as “low-nanomolar”.
